We go through four molecules from article PMC7774954, “Interactomic affinity profiling by holdup assay: Acetylation and distal residues impact the PDZome-binding specificity of PTEN phosphatase” (PLoS ONE, 2020).

In one assay the target is T1, NHERF2 PDZ 2 (Homo sapiens, UniProt Q15599).
T1 construct: made in house; host or cells: E. coli
Briefly: Holdup assay, NHERF2-2. Type of assay: binding. The note with it: for BI: PDZ domain NHERF2-2 (gene MPDZ, 9). As for the experimental part: The holdup assay was performed on a Tecan freedom Evo200 robot with 384-well plates in singlicate for the three 11-mer PTEN variants and the 13-mer PTEN peptide as described in [31, 32]. Briefly, prior to interaction assay, 2.5 μL of streptavidin resin was saturated in each well with 20 μL of biotinylated PBM peptides (42 μM) and then washed twice with an excess of free biotin, while the reference resin was incubated only with biotin. Right before the holdup experiment, the PDZ library was spiked with an internal standard of lysozyme. Then, the biotin- or PBM-saturated resin was incubated, each in a distinct well of a 384-well plate, with complete cell lysates diluted so that the concentration of the tag-PDZ present in the crude extract is adjusted at 4 μM. After a sufficient time to reach complex equilibrium (15 min.), a fast and mild filtration step is performed and the tag-PDZ concentrations were measured by capillary electrophoresis instrument (LabChip GXII, PerkinElmer, Massachusets, USA). Standard markers were used to convert migration time into molecular weight on the LabChip software and inappropriate molecular weight markers were corrected or excluded.
For filtered data, the BI was extracted with the following equation (Eq 1) that estimates the depleted fraction after superimposition of the sample and reference electropherograms: BI=Iref−Ilig/Iref (1) where Iref and Ilig are the intensities of the tag-PDZ peaks measured, for each PDZ domain/PBM peptide interaction pair, in the biotin reference and the PBM electropherograms, respectively.
BIs were transformed into dissociation constants (KD) using the following formula: KD=([PDZtot]−BI·[PDZtot])·([PBMtot]−BI·[PDZtot])/BI·[PDZtot] (2) where [PDZtot] and [PBMtot] correspond to the total concentrations of the PDZ domain (usually around 4 μM) and the PBM peptide used during the assay. Since the PBMtot concentration in the resin during the holdup assay parameter may differ from one peptide to another and remains unknown, it is impossible to directly convert BI values into KD constants. We systematically determined the KD constants for a subset of PDZ/PBM pairs by competitive FP. […] For each PBM, the average peptide concentration was calculated after outlier rejection based on the absolute distances from the median as compared to three times the standard deviation (3σ rule), with never more than 2 values rejected.

For another assay, the system named is AHNAK2-1. The experiment in a line: Holdup assay, AHNAK2-1. The assay is classed as binding, human.
For the next assay, the target named is T2, ARHGEF11-1 (Homo sapiens, UniProt O15085).
T2 sequence (O15085 47-126): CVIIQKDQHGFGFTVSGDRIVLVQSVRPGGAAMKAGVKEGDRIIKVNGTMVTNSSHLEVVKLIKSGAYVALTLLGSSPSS
Briefly: Holdup assay, ARHGEF11-1. Type of assay: binding.

A further assay addresses T3, FRMPD2-2 (Homo sapiens, UniProt Q68DX3).
T3 sequence (Q68DX3 1-1309): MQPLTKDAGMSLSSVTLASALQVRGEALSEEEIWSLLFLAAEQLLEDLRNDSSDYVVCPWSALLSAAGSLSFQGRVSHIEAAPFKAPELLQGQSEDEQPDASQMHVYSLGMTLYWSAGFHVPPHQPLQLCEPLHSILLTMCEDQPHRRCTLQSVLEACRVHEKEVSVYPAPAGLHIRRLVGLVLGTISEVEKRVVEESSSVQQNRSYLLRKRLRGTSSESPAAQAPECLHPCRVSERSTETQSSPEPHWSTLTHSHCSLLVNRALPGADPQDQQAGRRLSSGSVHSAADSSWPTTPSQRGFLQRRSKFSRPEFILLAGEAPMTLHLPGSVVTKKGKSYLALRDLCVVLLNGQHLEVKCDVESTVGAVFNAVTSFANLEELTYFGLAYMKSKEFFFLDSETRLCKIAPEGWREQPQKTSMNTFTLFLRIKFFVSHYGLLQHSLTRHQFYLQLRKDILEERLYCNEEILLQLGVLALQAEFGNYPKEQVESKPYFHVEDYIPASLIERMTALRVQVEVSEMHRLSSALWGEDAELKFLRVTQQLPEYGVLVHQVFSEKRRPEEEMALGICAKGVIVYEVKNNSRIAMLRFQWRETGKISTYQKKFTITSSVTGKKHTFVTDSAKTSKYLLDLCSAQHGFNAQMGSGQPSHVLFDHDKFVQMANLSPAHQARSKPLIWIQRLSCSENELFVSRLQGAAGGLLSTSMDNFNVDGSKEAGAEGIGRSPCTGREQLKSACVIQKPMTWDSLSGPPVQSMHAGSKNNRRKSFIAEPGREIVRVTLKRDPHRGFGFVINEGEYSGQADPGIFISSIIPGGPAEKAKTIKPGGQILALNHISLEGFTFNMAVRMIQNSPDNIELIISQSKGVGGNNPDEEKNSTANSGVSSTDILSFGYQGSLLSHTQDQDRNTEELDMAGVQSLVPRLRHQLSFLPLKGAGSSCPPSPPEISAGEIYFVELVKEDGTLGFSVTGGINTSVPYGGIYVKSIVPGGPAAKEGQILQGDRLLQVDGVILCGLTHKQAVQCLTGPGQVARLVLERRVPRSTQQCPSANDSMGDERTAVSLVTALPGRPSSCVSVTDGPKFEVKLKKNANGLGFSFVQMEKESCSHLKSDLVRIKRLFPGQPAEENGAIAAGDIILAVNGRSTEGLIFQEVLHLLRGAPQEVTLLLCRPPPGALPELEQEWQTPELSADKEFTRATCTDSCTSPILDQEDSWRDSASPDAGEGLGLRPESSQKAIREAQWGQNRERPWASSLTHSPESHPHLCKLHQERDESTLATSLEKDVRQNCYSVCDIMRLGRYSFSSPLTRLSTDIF
The experiment in a line: Holdup assay, FRMPD2-2. The assay is classed as binding.

The test system of a further assay is GRIP1-1. The experiment in a line: Holdup assay, GRIP1-1. The assay is classed as binding, human.
The subject of another assay is GRIP1-5. Briefly: Holdup assay, GRIP1-5. The assay is classed as binding, human.
A further assay relates to MAGI3-3. Briefly: Holdup assay, MAGI3-3. The assay is classed as binding, human.
In the next assay the test system is APBA2-1. Briefly: Holdup assay, APBA2-1. The assay is classed as binding, human.
Another assay relates to DEPTOR-1. Briefly: Holdup assay, DEPTOR-1. The assay is classed as binding, human.
The subject of a further assay is GRIP2-6. Briefly: Holdup assay, GRIP2-6. Type of assay: binding, human.
In a further assay the target is MPDZ-10 (Homo sapiens, UniProt O75970). Briefly: Holdup assay, MPDZ-10. The assay is classed as binding.
Sequence of MPDZ-10 (O75970 whole entry): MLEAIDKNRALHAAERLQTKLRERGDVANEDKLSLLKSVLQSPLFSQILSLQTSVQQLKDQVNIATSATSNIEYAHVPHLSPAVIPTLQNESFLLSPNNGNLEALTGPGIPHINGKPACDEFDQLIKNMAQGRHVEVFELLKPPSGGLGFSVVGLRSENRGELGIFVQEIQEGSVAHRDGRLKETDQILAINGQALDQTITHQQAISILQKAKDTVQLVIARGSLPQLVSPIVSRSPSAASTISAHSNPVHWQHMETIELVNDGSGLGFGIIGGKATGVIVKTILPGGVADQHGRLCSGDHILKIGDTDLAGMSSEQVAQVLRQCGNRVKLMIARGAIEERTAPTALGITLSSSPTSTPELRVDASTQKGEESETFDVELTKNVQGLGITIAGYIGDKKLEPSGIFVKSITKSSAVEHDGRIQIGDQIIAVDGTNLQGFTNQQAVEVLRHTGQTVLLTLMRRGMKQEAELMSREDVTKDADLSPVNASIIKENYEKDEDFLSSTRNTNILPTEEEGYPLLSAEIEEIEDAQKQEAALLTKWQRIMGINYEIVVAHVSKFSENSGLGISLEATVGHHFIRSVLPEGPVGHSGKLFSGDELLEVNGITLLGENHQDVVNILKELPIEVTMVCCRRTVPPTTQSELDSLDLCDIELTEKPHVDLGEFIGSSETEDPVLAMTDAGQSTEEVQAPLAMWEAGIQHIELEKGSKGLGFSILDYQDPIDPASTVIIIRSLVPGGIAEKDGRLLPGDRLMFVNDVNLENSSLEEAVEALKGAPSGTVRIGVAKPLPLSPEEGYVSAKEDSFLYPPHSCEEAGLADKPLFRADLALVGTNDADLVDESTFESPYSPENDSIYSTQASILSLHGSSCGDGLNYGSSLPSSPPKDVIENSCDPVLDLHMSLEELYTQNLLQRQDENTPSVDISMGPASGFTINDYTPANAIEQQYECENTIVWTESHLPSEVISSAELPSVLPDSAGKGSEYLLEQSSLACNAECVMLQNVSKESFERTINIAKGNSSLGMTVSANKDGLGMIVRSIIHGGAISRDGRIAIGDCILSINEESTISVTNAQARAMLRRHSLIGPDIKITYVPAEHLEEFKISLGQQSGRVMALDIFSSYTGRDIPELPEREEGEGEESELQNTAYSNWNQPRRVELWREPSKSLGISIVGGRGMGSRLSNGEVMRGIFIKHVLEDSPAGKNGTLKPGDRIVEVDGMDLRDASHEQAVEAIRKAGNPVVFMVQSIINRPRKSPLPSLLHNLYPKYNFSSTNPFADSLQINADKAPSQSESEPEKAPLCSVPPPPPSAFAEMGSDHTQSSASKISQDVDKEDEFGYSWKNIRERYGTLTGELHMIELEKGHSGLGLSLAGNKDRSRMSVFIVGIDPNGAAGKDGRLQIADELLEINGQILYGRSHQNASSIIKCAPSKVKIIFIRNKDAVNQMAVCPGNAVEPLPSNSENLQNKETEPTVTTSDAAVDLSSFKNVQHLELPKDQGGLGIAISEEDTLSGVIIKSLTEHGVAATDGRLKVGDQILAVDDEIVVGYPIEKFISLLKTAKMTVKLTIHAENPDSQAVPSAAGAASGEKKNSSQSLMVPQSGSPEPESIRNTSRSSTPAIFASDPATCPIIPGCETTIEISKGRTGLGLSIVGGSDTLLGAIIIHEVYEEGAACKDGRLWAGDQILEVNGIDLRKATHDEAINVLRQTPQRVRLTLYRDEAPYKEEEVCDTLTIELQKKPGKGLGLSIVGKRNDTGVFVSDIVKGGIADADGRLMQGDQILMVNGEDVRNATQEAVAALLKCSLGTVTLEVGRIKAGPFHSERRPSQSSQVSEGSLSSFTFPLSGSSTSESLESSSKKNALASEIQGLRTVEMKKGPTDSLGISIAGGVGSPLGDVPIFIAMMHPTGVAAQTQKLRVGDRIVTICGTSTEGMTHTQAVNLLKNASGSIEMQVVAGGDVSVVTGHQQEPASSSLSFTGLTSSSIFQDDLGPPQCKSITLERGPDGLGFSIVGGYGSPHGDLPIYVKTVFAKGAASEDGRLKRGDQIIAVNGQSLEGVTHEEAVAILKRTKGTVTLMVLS

*1 amine or outer side, *2 acyl side, *3 side chain or, on linkers, in order; H or OH if unused. Where a SMILES comes first, the peptide text is derived from it. The star is where a group is joined. X1 = O=C(CCCC[C@@H]1SC[C@@H]2NC(=O)N[C@@H]21)NCCCOCCOCCOCCCN*; Suc = O=C(CCC(=O)[*:2])[*:1]

As a reminder, the Kd is the constant that tells how readily two partners part at equilibrium. A higher Kd goes with lower affinity.

T1 sequence (Q15599 150-230 limits assumed): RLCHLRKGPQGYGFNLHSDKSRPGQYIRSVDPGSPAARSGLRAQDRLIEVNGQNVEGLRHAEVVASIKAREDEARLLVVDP

`CC[C@H](C)[C@H](NC(=O)[C@H](CCC(N)=O)NC(=O)[C@@H](NC(=O)[C@H](Cc1c[nH]cn1)NC(=O)[C@H](CCC(N)=O)NC(=O)[C@H](CC(=O)O)NC(=O)[C@H](CCC(=O)O)NC(=O)[C@H](CC(=O)O)NC(=O)CCC(=O)NCCCOCCOCCOCCCNC(=O)CCCC[C@@H]1SC[C@@H]2NC(=O)N[C@@H]21)[C@@H](C)O)C(=O)N[C@H](C(=O)N[C@@H](CCCNC(=N)N)C(=O)N[C@H](C(=O)O)C(C)C)[C@@H](C)O` [PTEN_KR] ({X1-Suc}-DEDQHTQITRV-OH): the Kd at NHERF2 PDZ 2 was 20.9 µM; on FRMPD2-2, 56.9 µM. Moreover, the BI is 0.523 on NHERF2 PDZ 2; -0.009 with AHNAK2-1; 0.18 at ARHGEF11-1; 0.295 at FRMPD2-2; -0.163 with GRIP1-1; 0.003 in the assay on GRIP1-5. For the same molecule, the BI in the assay on MAGI3-3 is -0.043. The LogKD in the assay on AHNAK2-1, with GRIP1-1, in the assay with GRIP1-5 and in the assay on MAGI3-3 was 3.655 in each case.

Take `CC[C@H](C)[C@H](NC(=O)[C@H](CCC(N)=O)NC(=O)[C@@H](NC(=O)[C@H](Cc1c[nH]cn1)NC(=O)[C@H](CCC(N)=O)NC(=O)[C@H](CC(=O)O)NC(=O)[C@H](CCC(=O)O)NC(=O)[C@H](CC(=O)O)NC(=O)[C@H](Cc1ccccc1)NC(=O)[C@@H]1CCCN1C(=O)CCC(=O)NCCCOCCOCCOCCCNC(=O)CCCC[C@@H]1SC[C@@H]2NC(=O)N[C@@H]21)[C@@H](C)O)C(=O)N[C@H](C(=O)N[C@@H](CCCCN)C(=O)N[C@H](C(=O)O)C(C)C)[C@@H](C)O` [PTEN_13] ({X1-Suc}-PFDEDQHTQITKV-OH): the BI at NHERF2 PDZ 2 is 0.117; in the assay with APBA2-1, 0.029; on ARHGEF11-1, 0.114; with DEPTOR-1 it was -0.005; at FRMPD2-2 it was 0.254; in the assay on GRIP1-1 it was -0.079. For the same molecule, the BI is given as -0.033 in the assay on GRIP1-5, -0.013 in the assay on GRIP2-6, -0.03 in the assay on MAGI3-3 and 0.493 at MPDZ-10. The figures for the Kd at FRMPD2-2 and on MPDZ-10 were 46.9 µM and 15.5 µM, respectively.

In the case of `CC[C@H](C)[C@H](NC(=O)[C@H](CCC(N)=O)NC(=O)[C@@H](NC(=O)[C@H](Cc1c[nH]cn1)NC(=O)[C@H](CCC(N)=O)NC(=O)[C@H](CC(=O)O)NC(=O)[C@H](CCC(=O)O)NC(=O)[C@H](CC(=O)O)NC(=O)CCC(=O)NCCCOCCOCCOCCCNC(=O)CCCC[C@@H]1SC[C@@H]2NC(=O)N[C@@H]21)[C@@H](C)O)C(=O)N[C@H](C(=O)N[C@@H](CCCCN)C(=O)N[C@H](C(=O)O)C(C)C)[C@@H](C)O` [PTEN_11], the dissociation constant Kd is 35.3 µM at NHERF2 PDZ 2 and 80 µM at FRMPD2-2. In addition, the BI at NHERF2 PDZ 2 is reported as 0.476; in the assay with AHNAK2-1, -0.026; on ARHGEF11-1, 0.026; at FRMPD2-2, 0.291; with GRIP1-1, -0.021; in the assay with GRIP1-5 it was 0.021. This molecule showed a BI with MAGI3-3 of -0.099. Further, the LogKD with AHNAK2-1, on ARHGEF11-1, in the assay with GRIP1-1, in the assay on GRIP1-5 and with MAGI3-3 was 3.519 throughout.

As for `CC[C@H](C)[C@H](NC(=O)[C@H](CCC(N)=O)NC(=O)[C@@H](NC(=O)[C@H](Cc1c[nH]cn1)NC(=O)[C@H](CCC(N)=O)NC(=O)[C@H](CC(=O)O)NC(=O)[C@H](CCC(=O)O)NC(=O)[C@H](CC(=O)O)NC(=O)CCC(=O)NCCCOCCOCCOCCCNC(=O)CCCC[C@@H]1SC[C@@H]2NC(=O)N[C@@H]21)[C@@H](C)O)C(=O)N[C@H](C(=O)N[C@@H](CCCCNC(C)=O)C(=O)N[C@H](C(=O)O)C(C)C)[C@@H](C)O` [PTEN_Ac], the BI is 0.066 on NHERF2 PDZ 2; 0.034 in the assay with AHNAK2-1; -0.029 with APBA2-1; 0.428 at ARHGEF11-1; -0.046 in the assay on DEPTOR-1; 0.574 at FRMPD2-2. Moreover, the BI with GRIP1-5 is given as -0.054; in the assay on GRIP2-6, -0.084; in the assay with MAGI3-3 it was -0.079; at MPDZ-10, 0.391. For the same molecule, the LogKD in the assay on AHNAK2-1, in the assay with APBA2-1, in the assay with DEPTOR-1, in the assay on GRIP1-5, in the assay on GRIP2-6 and in the assay on MAGI3-3 was 3.605 each time. Moreover, the equilibrium dissociation constant (Kd) at ARHGEF11-1 is 35.1 µM; on FRMPD2-2, 19.1 µM; at MPDZ-10, 41.2 µM.
